Assay results: patent publication US8853230B2, “Inhibitors of JAK” (Portola Pharmaceuticals, Inc., priority 2009, dated 2014)

Legend:
[1] = target: T1, JAK1 (Homo sapiens, UniProt P23458); experiment: Z'-LYTE kinase assay, JAK1 tyrosine phosphorylation activity; format: biochemical; details: read-out: JAK 1 IC50
T1 construct: 5 μl of catalytic domain recombinant Kinase enzyme+Tyr peptide substrate (Invitrogen, Calif.); purchased Invitrogen
How it was run: (§1)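 FRET read-out (ex 400 nm, em 445 and 520 nm) after protease cleavage of non-phosphorylated Tyr6 peptide. Kinase step: catalytic-domain enzyme, peptide, ATP and compound, 1 h at RT, 1% DMSO. IC50 from a 4-parameter logistic fit of percent phosphorylation versus uninhibited control.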

[2] = target: T2, JAK2 (Homo sapiens, UniProt O60674); experiment: Z'-LYTE kinase assay, JAK2 tyrosine phosphorylation activity; format: biochemical
T2 construct: 5 μl of catalytic domain recombinant Kinase enzyme+Tyr peptide substrate (Invitrogen, Calif.); purchased Invitrogen
T2 sequence (O60674 849-1124 limits assumed): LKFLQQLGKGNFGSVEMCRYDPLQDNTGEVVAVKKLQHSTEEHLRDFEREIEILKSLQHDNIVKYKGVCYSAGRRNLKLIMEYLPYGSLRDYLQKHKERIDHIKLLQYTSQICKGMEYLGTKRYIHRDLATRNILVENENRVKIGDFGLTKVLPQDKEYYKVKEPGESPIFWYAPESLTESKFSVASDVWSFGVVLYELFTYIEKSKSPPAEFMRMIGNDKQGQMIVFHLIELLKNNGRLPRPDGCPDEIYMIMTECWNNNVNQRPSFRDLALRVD
How it was run: as §1

[3] = target: T3, JAK3 (Homo sapiens, UniProt P52333); experiment: Z'-LYTE kinase assay, JAK3 tyrosine phosphorylation activity; format: biochemical
T3 construct: 5 μl of catalytic domain recombinant Kinase enzyme+Tyr peptide substrate (Invitrogen, Calif.); purchased Invitrogen
T3 sequence (P52333 822-1111 limits assumed): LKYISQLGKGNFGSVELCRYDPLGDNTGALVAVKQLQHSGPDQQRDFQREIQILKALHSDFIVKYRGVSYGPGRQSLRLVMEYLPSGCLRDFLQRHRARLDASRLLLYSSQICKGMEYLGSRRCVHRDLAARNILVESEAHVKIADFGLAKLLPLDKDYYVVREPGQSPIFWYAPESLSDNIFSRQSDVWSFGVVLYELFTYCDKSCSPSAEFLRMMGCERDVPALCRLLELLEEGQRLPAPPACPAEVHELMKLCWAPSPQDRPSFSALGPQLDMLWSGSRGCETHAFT
How it was run: as §1

[4] = target: Syk (Homo sapiens, UniProt P43405); experiment: Syk IC50 (Table 1; method not given); format: biochemical
[5] = target: T4, TYK2 (Homo sapiens, UniProt P29597); experiment: Z'-LYTE kinase assay, TYK2 tyrosine phosphorylation activity; format: biochemical
T4 construct: 5 μl of catalytic domain recombinant Kinase enzyme+Tyr peptide substrate (Invitrogen, Calif.); purchased Invitrogen
T4 sequence (P29597 897-1176 limits assumed): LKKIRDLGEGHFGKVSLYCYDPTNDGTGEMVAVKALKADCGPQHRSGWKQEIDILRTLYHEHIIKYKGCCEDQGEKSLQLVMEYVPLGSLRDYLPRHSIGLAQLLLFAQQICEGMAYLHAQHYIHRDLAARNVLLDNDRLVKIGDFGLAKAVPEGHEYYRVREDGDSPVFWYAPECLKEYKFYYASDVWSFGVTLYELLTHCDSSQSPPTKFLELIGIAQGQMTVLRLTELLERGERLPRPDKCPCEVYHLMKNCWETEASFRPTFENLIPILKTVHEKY
How it was run: as §1

[6] = tested on: IL4-induced phospho STAT6 formation in Ramos B lymphocytes; experiment: Inhibition of IL4-induced phospho STAT6 formation in Ramos B lymphocytes (flow cytometry); format: cell-based, human; details: Homo sapiens; for inhibition at 0.2 µM: 200 nM compound, read-out: % Inhibition of IL-4 Induced STAT6 Phosphorylation 200 nM; for inhibition at 1 µM: 1 μM compound, read-out: % Inhibition of IL-4 Induced STAT6 Phosphorylation 1 μM
How it was run: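 Read-out: phospho-STAT6 (Y641) mean fluorescent intensity by intracellular flow cytometry, expressed as inhibition of the IL4-induced signal. Ramos B lymphocytes were given compound for 1 h at 37°C, then 1 ng/ml IL4 for 10 min, before fixation and methanol permeabilization.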

T1 sequence (P23458 875-1153 limits assumed): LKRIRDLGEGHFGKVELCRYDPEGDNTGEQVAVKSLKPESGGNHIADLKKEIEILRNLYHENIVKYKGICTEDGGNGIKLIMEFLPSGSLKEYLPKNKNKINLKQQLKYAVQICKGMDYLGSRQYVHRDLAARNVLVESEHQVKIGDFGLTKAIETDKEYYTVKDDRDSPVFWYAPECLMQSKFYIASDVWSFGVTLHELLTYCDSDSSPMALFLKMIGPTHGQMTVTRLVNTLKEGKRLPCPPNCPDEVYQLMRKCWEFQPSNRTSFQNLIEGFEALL

Structure (SMILES) | IC50 [1] | IC50 [2] | IC50 [3] | IC50 [4] | IC50 [5] | inhibition at 0.2 µM [6] | inhibition at 1 µM [6]
CC(C)OC(=O)Nc1cccc(Nc2ncc(C(N)=O)c(NCc3ccccc3)n2)c1 [Example 41, isopropyl 3-(4-(benzylamino)-5-carbamoylpyrimidin-2-ylamino)phenylcarbamate] | > 1000 nM | 100 to 1000 nM | 10 to 100 nM | > 1000 nM | 10 to 100 nM | 50.7% | 95.3%
COCC(=O)Nc1cccc(Nc2ncc(C(N)=O)c(N[C@H](C)c3ccccc3)n2)c1 [Example 47, (R)-2-(3-(2-methoxyacetamido)phenylamino)-4-(1-phenylethylamino)pyrimidine-5-carboxamide] | 100 to 1000 nM | 10 to 100 nM | 1 to 10 nM | > 1000 nM | 10 to 100 nM | 25.3% | 77.7%
CC(=O)Nc1cccc(Nc2ncc(C(N)=O)c(N[C@H](CO)Cc3cnc[nH]3)n2)c1 [Example 60, (S)-2-(3-acetamidophenylamino)-4-(1-hydroxy-3-(1H-imidazol-5-yl)propan-2-ylamino)pyrimidine-5-carboxamide] | 100 to 1000 nM | 100 to 1000 nM | 10 to 100 nM | > 1000 nM | 100 to 1000 nM | 12.5% | 23%
CC(=O)Nc1cccc(Nc2ncc(C(N)=O)c(N[C@H](CO)c3ccccc3)n2)c1 [Example 93, (S)-2-(3-acetamidophenylamino)-4-(2-hydroxy-1-phenylethylamino)pyrimidine-5-carboxamide] | 100 to 1000 nM | 10 to 100 nM | 1 to 10 nM | > 1000 nM | 10 to 100 nM | 20% | 53%
CC(=O)Nc1cccc(Nc2ncc(C(N)=O)c(NCC3CCCN(C(=O)OCc4ccccc4)C3)n2)c1 (centres unmarked) [Example 115, Benzyl 3-((2-(3-acetamidophenylamino)-5-carbamoylpyrimidin-4-ylamino)methyl)piperidine-1-carboxylate] | 100 to 1000 nM | 100 to 1000 nM | 10 to 100 nM | > 1000 nM | 100 to 1000 nM | 12.3% | 53.7%
CC(=O)Nc1cccc(Nc2ncc(C(N)=O)c(NCC3CCCN(C(C)=O)C3)n2)c1 (centres unmarked) [Example 119, 2-(3-acetamidophenylamino)-4-((1-acetylpiperidin-3-yl)methylamino)pyrimidine-5-carboxamide] | 10 to 100 nM | 10 to 100 nM | 1 to 10 nM | 100 to 1000 nM | 10 to 100 nM | 9% | 63%
C[C@@H](Nc1nc(Nc2cccc(NC(=O)N3CC=CC3)c2)ncc1C(N)=O)c1ccccc1 [Example 121, (R)-2-(3-(2,5-dihydro-1H-pyrrole-1-carboxamido)phenylamino)-4-(1-phenylethylamino)pyrimidine-5-carboxamide] | 100 to 1000 nM | 10 to 100 nM | 1 to 10 nM | > 1000 nM | 10 to 100 nM | 18.3% | 61.7%
C[C@@H](Nc1nc(Nc2cccc(NC(=O)N3CC[C@H](O)C3)c2)ncc1C(N)=O)c1ccccc1 [Example 128, 2-(3-((S)-3-hydroxypyrrolidine-1-carboxamido)phenylamino)-4-((R)-1-phenylethylamino)pyrimidine-5-carboxamide] | 10 to 100 nM | 10 to 100 nM | < 1 nM | > 1000 nM | 10 to 100 nM | 31.7% | 82.7%
COC(=O)Nc1cc(Nc2ncc(C(N)=O)c(N[C@H](C)c3ccccc3)n2)ccc1Cl [Example 129, (R)-methyl 5-(5-carbamoyl-4-(1-phenylethylamino)pyrimidin-2-ylamino)-2-chlorophenylcarbamate] | > 1000 nM | 100 to 1000 nM | 10 to 100 nM | > 1000 nM | 100 to 1000 nM | 4% | 16.7%

Further lines, with some results ahead:

IC50 [1] | IC50 [2] | IC50 [3] | IC50 [4] | IC50 [5] | Structure (SMILES) | inhibition at 0.2 µM [6] | inhibition at 1 µM [6]
10 to 100 nM | 10 to 100 nM | 1 to 10 nM | 100 to 1000 nM | 1 to 10 nM | NC(=O)Nc1cccc(Nc2ncc(C(N)=O)c(NCc3ccccc3)n2)c1 [Example 38, 4-(benzylamino)-2-(3-ureidophenylamino)pyrimidine-5-carboxamide] | 41.3% | 82.7%
10 to 100 nM | 10 to 100 nM | 1 to 10 nM | > 1000 nM | 1 to 10 nM | CNC(=O)Nc1cccc(Nc2ncc(C(N)=O)c(NCc3ccccc3)n2)c1 [Example 39, 4-(benzylamino)-2-(3-(3-methylureido)phenylamino)pyrimidine-5-carboxamide] | 15% | 60%
10 to 100 nM | 10 to 100 nM | < 1 nM | > 1000 nM | 1 to 10 nM | NC(=O)c1cnc(Nc2cccc(NC(=O)N3CCCC3)c2)nc1NCc1ccccc1 [Example 40, 4-(benzylamino)-2-(3-(pyrrolidine-1-carboxamido)phenylamino)pyrimidine-5-carboxamide] | 47.2% | 78.8%
10 to 100 nM | 10 to 100 nM | 1 to 10 nM | 100 to 1000 nM | 1 to 10 nM | CC(=O)Nc1cccc(Nc2ncc(C(N)=O)c(NC3CCCCC3)n2)c1 [Example 52, 2-(3-acetamidophenylamino)-4-(cyclohexylamino)pyrimidine-5-carboxamide] | 63% | 94%
10 to 100 nM | 10 to 100 nM | 1 to 10 nM | 100 to 1000 nM | 10 to 100 nM | COCC(=O)Nc1cccc(Nc2ncc(C(N)=O)c(NC(C)C)n2)c1 [Example 57, 4-(isopropylamino)-2-(3-(2-methoxyacetamido)phenylamino)pyrimidine-5-carboxamide] | 55% | 76.5%
10 to 100 nM | 10 to 100 nM | 1 to 10 nM | > 1000 nM | 1 to 10 nM | CC[C@H](C)[C@@H](CO)Nc1nc(Nc2cccc(NC(C)=O)c2)ncc1C(N)=O [Example 73, 2-(3-acetamidophenylamino)-4-((2S,3S)-1-hydroxy-3-methylpentan-2-ylamino)pyrimidine-5-carboxamide] | 17.1% | 55.6%
10 to 100 nM | 10 to 100 nM | 1 to 10 nM | > 1000 nM | 10 to 100 nM | CC(=O)Nc1cccc(Nc2ncc(C(N)=O)c(NC3CCOCC3)n2)c1 [Example 75, 2-(3-acetamidophenylamino)-4-(tetrahydro-2H-pyran-4-ylamino)pyrimidine-5-carboxamide] | 53.3% | 90.3%
10 to 100 nM | 1 to 10 nM | < 1 nM | 100 to 1000 nM | 1 to 10 nM | CC(=O)Nc1cccc(Nc2ncc(C(N)=O)c(NCC3CCCN(C(N)=O)C3)n2)c1 (centres unmarked) [Example 117, 2-(3-acetamidophenylamino)-4-((1-carbamoylpiperidin-3-yl)methylamino)pyrimidine-5-carboxamide] | 4.5% | 29.5%
